# Assay results taken from publication PMC8228600, “Design, Synthesis, In Vitro and In Vivo Evaluation of Heterobivalent SiFAlin-Modified Peptidic Radioligands Targeting Both Integrin αvβ3 and the MC1 Receptor—Suitable for the Specific Visualization of Melanomas?” (Pharmaceuticals, 2021).
# Where two headings read alike, the source gives them in different places.
# What was measured:
# [1] = Ex vivo biodistribution: uptake in B16F10 tumors and tumor-to-organ ratios; set-up: species or system nude mice (Balb/cAnNRj-Foxn1nu/nu); conditions: male, Balb/cAnNRj-Foxn1nu/nu (nude), mouse, iv, total radioactivity; for tissue uptake: B16F10 tumor (MC1R-positive); for tissue to tissue ratio: ex vivo biodistribution, mean (n = 3) ± SD
# Protocol: (§1) For the evaluation of the in vivo pharmacokinetics, the two most promising HBPLs—[^18F]2 with the highest affinity to both target receptors and [^18F]4 with the highest hydrophilicity and still reasonable binding affinities—were selected. For PET/CT imaging, 6-week-old male nude mice (Balb/cAnNRj-Foxn1^nu/nu) were subcutaneously injected with 5 × 10^5 B16F10 cells into the right flank and 2.0–2.5 × 10^6 U87MG cells into the left flank to generate the respective receptor-positive tumors. When the tumors reached a sufficient size for imaging, each mouse was administered 4.15 ± 2.28 MBq of [^18F]2 or 3.95 ± 2.06 MBq of [^18F]4 via the lateral tail vein under isoflurane anesthesia. To determine the receptor specificity of both peptide parts of the labeled HBPLs and their relative contribution to overall tumor uptake, blocking experiments were also performed. […] After i.v. injection of the tracers, a dynamic PET scan, followed by a CT scan, was performed. The resulting PET/CT images and time–activity curves (TACs) are depicted in Figure 6, Figure 7 and Figure 8. After completion of the diagnostic scans, the mice were sacrificed, their organs (blood, spleen, liver, kidney, pancreas, lung, heart, brain, bone, muscle, tail, tumors, stomach, colon and small intestine) were collected and measured in a γ-counter for ex vivo biodistribution (see Supplementary Materials Table S1 for detailed results).
# (§2) Each male nude mouse (six weeks old) was injected subcutaneously with 5 × 10^5 B16F10 cells into the right flank and 2.0–2.5 × 10^6 U87MG cells into the left flank. The health status and tumor growth of the mice were monitored regularly until the animals could be examined after 15–21 days, depending on the tumor size. For the in vivo experiments, the ^18F-radiolabeled compound was diluted in 0.9% saline to give a final EtOH concentration of <10%. Each mouse was injected with 4.15 ± 2.28 MBq of [^18F]2 or 3.95 ± 2.06 MBq of [^18F]4 via the lateral tail vein under isoflurane anesthesia. […] Each ^18F-labeled compound was studied with or without blocking in at least three mice. Mice were measured under isoflurane anesthesia in a small PET/SPECT/CT animal imaging system. First, a dynamic PET scan was performed over 90 min and the scan was framed in 29 timeframes (10 × 1 min, 10 × 2 min, 6 × 5 min, 3 × 10 min). Images were reconstructed using 12 iterations, a maximum likelihood expectation maximization (MLEM) algorithm including corrections for scattered radiation and decay and a voxel size of 0.5 mm. All PET scans were immediately followed by CT acquisition at a voltage of 45 kV and a current of 400 μA. The images were reconstructed using the filtered back projection (FBP) algorithm with a voxel size of 250 μm. The analysis of the data, including the generation of TACs of the kidneys, liver and tumors and the MIPs, was performed via PMOD (v3.8). For ex vivo biodistribution, the mice were sacrificed directly after the PET/CT scan. Organs (blood, spleen, liver, kidneys, pancreas, lungs, heart, brain, bone, muscle, tail, tumors, stomach, colon and small intestine) were collected, weighed and their radioactivity measured in a γ-counter. The percentage injected dose per gram (% ID/g) of each tissue was calculated from the determined values, organ weights, reference values and injected activity.
# [2] = test system: MC1R-positive B16F10 tumors; assay: as above; set-up: species or system nude mice (Balb/cAnNRj-Foxn1nu/nu); conditions: NDP blocking (20 μg coinjected); ex vivo after PET/CT scan; i.v.; n = 3
# Protocol: as §1, §2
# [3] = Ex vivo biodistribution in tumor-bearing nude mice (non-tumor tissues); conditions: male, Balb/cAnNRj-Foxn1nu/nu (nude), mouse, iv, total radioactivity, ex vivo after PET/CT scan, i.v., n = 3
# Protocol: as §1, §2
smiles,measurement,setting,value
CCCC[C@H](NC(=O)CNC(=O)CNC(=O)CCOCCOCCOCCOCCC(=O)NCCCN(CCCNC(=O)CCOCCOCCOCCOCCC(=O)NCCCC[C@@H]1NC(=O)[C@@H](Cc2ccccc2)NC(=O)[C@H](CC(=O)O)NC(=O)CNC(=O)[C@H](CCCNC(=N)N)NC1=O)CC(=O)N[C@@H](CCCCNC(=O)CCC[N+](C)(C)Cc1ccc([Si](F)(C(C)(C)C)C(C)(C)C)cc1)C(N)=O)C(=O)N[C@H]1CC(=O)NCCCC[C@@H](C(N)=O)NC(=O)[C@H](Cc2c[nH]c3ccccc23)NC(=O)[C@H](CCCNC(=N)N)NC(=O)[C@@H](Cc2ccccc2)NC(=O)[C@H](Cc2c[nH]cn2)NC1=O [[^18F]2],tissue uptake,"[1]; NDP blocking (20 μg coinjected), ex vivo after PET/CT scan, i.v., n = 3",1.83 ± 0.24 %ID/g
same,tissue uptake,"[1]; c(RGDyK) blocking (200 μg coinjected), ex vivo after PET/CT scan, i.v., n = 3",1.98 ± 0.18 %ID/g
same,tissue uptake,"[1]; double blocking (NDP + c(RGDyK)), ex vivo after PET/CT scan, i.v., n = 3",1.14 ± 0.42 %ID/g
same,tissue uptake,"[1]; without blocking, ex vivo after PET/CT scan, i.v., n = 3",2.32 ± 0.49 %ID/g
same,tissue to tissue ratio,"[1]; B16F10 tumor / blood, without blocking, read-out: tumor/blood ratio, B16F10",2.42 ± 0.73
same,tissue to tissue ratio,"[1]; B16F10 tumor / kidneys, without blocking, read-out: tumor/kidneys ratio, B16F10",0.19 ± 0.1
same,tissue to tissue ratio,"[1]; B16F10 tumor / liver, without blocking, read-out: tumor/liver ratio, B16F10",0.16 ± 0.11
same,tissue to tissue ratio,"[1]; B16F10 tumor / muscle, without blocking, read-out: tumor/muscle ratio, B16F10",0.68 ± 0.41
same,tissue uptake at 1.5 h,"[1]; B16F10 tumor, without blocking, ex vivo after PET/CT scan, i.v., n = 3",2.32 ± 0.49 %ID/g
same,"ID/g, B16F10 tumor",[2],1.83 ± 0.24 % ID/g
same,tissue uptake at 1.5 h,"[3]; blood, NDP blocking (20 μg coinjected), read-out: ID/g, blood",0.84 ± 0.12 %ID/g
same,tissue uptake at 1.5 h,"[3]; blood, c(RGDyK) blocking (200 μg coinjected), read-out: ID/g, blood",1.14 ± 0.15 %ID/g
same,tissue uptake at 1.5 h,"[3]; blood, double blocking (NDP + c(RGDyK)), read-out: ID/g, blood",1.13 ± 0.1 %ID/g
same,tissue uptake at 1.5 h,"[3]; blood, without blocking, read-out: ID/g, blood",0.99 ± 0.23 %ID/g
same,tissue uptake at 1.5 h,"[3]; bone, NDP blocking (20 μg coinjected), read-out: ID/g, bone",9.74 ± 2.85 %ID/g
same,tissue uptake at 1.5 h,"[3]; bone, c(RGDyK) blocking (200 μg coinjected), read-out: ID/g, bone",4.12 ± 0.73 %ID/g
same,tissue uptake at 1.5 h,"[3]; bone, double blocking (NDP + c(RGDyK)), read-out: ID/g, bone",4.47 ± 1.57 %ID/g
same,tissue uptake at 1.5 h,"[3]; bone, without blocking, read-out: ID/g, bone",8.01 ± 3.48 %ID/g
same,tissue uptake at 1.5 h,"[3]; brain, NDP blocking (20 μg coinjected), read-out: ID/g, brain",0.13 ± 0.03 %ID/g
same,tissue uptake at 1.5 h,"[3]; brain, c(RGDyK) blocking (200 μg coinjected), read-out: ID/g, brain",0.13 ± 0.05 %ID/g
same,tissue uptake at 1.5 h,"[3]; brain, double blocking (NDP + c(RGDyK)), read-out: ID/g, brain",0.07 ± 0.01 %ID/g
same,tissue uptake at 1.5 h,"[3]; brain, without blocking, read-out: ID/g, brain",0.18 ± 0.02 %ID/g
same,tissue uptake,"[3]; colon, NDP blocking (20 μg coinjected), read-out: ID/g, colon",1.44 ± 0.34 %ID/g
same,tissue uptake,"[3]; colon, c(RGDyK) blocking (200 μg coinjected), read-out: ID/g, colon",0.5 ± 0.07 %ID/g
same,tissue uptake,"[3]; colon, double blocking (NDP + c(RGDyK)), read-out: ID/g, colon",0.63 ± 0.2 %ID/g
same,tissue uptake,"[3]; colon, without blocking, read-out: ID/g, colon",1.58 ± 0.44 %ID/g
same,tissue uptake at 1.5 h,"[3]; heart, NDP blocking (20 μg coinjected), read-out: ID/g, heart",1.06 ± 0.31 %ID/g
same,tissue uptake at 1.5 h,"[3]; heart, c(RGDyK) blocking (200 μg coinjected), read-out: ID/g, heart",0.62 ± 0.09 %ID/g
same,tissue uptake at 1.5 h,"[3]; heart, double blocking (NDP + c(RGDyK)), read-out: ID/g, heart",0.93 ± 0.18 %ID/g
same,tissue uptake at 1.5 h,"[3]; heart, without blocking, read-out: ID/g, heart",1.24 ± 0.36 %ID/g
same,tissue uptake at 1.5 h,"[3]; kidneys, NDP blocking (20 μg coinjected), read-out: ID/g, kidneys",17.3 ± 2.08 %ID/g
same,tissue uptake at 1.5 h,"[3]; kidneys, c(RGDyK) blocking (200 μg coinjected), read-out: ID/g, kidneys",12.1 ± 2.3 %ID/g
same,tissue uptake at 1.5 h,"[3]; kidneys, double blocking (NDP + c(RGDyK)), read-out: ID/g, kidneys",24 ± 6.34 %ID/g
same,tissue uptake at 1.5 h,"[3]; kidneys, without blocking, read-out: ID/g, kidneys",13.2 ± 3.57 %ID/g
same,tissue uptake at 1.5 h,"[3]; liver, NDP blocking (20 μg coinjected), read-out: ID/g, liver",14.9 ± 5.07 %ID/g
same,tissue uptake at 1.5 h,"[3]; liver, c(RGDyK) blocking (200 μg coinjected), read-out: ID/g, liver",4.94 ± 1.39 %ID/g
same,tissue uptake at 1.5 h,"[3]; liver, double blocking (NDP + c(RGDyK)), read-out: ID/g, liver",8.5 ± 2.71 %ID/g
same,tissue uptake,"[3]; liver, without blocking, read-out: ID/g, liver",17.2 ± 6.58 %ID/g
same,tissue uptake at 1.5 h,"[3]; lung, NDP blocking (20 μg coinjected), read-out: ID/g, lung",2.98 ± 0.87 %ID/g
same,tissue uptake at 1.5 h,"[3]; lung, c(RGDyK) blocking (200 μg coinjected), read-out: ID/g, lung",1.07 ± 0.15 %ID/g
same,tissue uptake at 1.5 h,"[3]; lung, double blocking (NDP + c(RGDyK)), read-out: ID/g, lung",1.3 ± 0.36 %ID/g
same,tissue uptake at 1.5 h,"[3]; lung, without blocking, read-out: ID/g, lung",2.89 ± 1.04 %ID/g
same,tissue uptake at 1.5 h,"[3]; muscle, NDP blocking (20 μg coinjected), read-out: ID/g, muscle",1.37 ± 0.26 %ID/g
same,tissue uptake at 1.5 h,"[3]; muscle, c(RGDyK) blocking (200 μg coinjected), read-out: ID/g, muscle",0.38 ± 0.04 %ID/g
same,tissue uptake at 1.5 h,"[3]; muscle, double blocking (NDP + c(RGDyK)), read-out: ID/g, muscle",0.34 ± 0.07 %ID/g
same,tissue uptake at 1.5 h,"[3]; muscle, without blocking, read-out: ID/g, muscle",4.37 ± 2.58 %ID/g
same,tissue uptake at 1.5 h,"[3]; pancreas, NDP blocking (20 μg coinjected), read-out: ID/g, pancreas",0.8 ± 0.15 %ID/g
same,tissue uptake at 1.5 h,"[3]; pancreas, c(RGDyK) blocking (200 μg coinjected), read-out: ID/g, pancreas",0.36 ± 0.04 %ID/g
same,tissue uptake at 1.5 h,"[3]; pancreas, double blocking (NDP + c(RGDyK)), read-out: ID/g, pancreas",0.55 ± 0.15 %ID/g
same,tissue uptake at 1.5 h,"[3]; pancreas, without blocking, read-out: ID/g, pancreas",0.91 ± 0.29 %ID/g
same,tissue uptake,"[3]; small intestine, NDP blocking (20 μg coinjected), read-out: ID/g, small intestine",2.75 ± 0.36 %ID/g
same,tissue uptake,"[3]; small intestine, c(RGDyK) blocking (200 μg coinjected), read-out: ID/g, small intestine",0.75 ± 0.11 %ID/g
same,tissue uptake,"[3]; small intestine, double blocking (NDP + c(RGDyK)), read-out: ID/g, small intestine",0.9 ± 0.23 %ID/g
same,tissue uptake,"[3]; small intestine, without blocking, read-out: ID/g, small intestine",2.46 ± 1.77 %ID/g
same,tissue uptake,"[3]; spleen, NDP blocking (20 μg coinjected), read-out: ID/g, spleen",2.75 ± 0.55 %ID/g
same,tissue uptake,"[3]; spleen, c(RGDyK) blocking (200 μg coinjected), read-out: ID/g, spleen",0.94 ± 0.19 %ID/g
same,tissue uptake,"[3]; spleen, double blocking (NDP + c(RGDyK)), read-out: ID/g, spleen",1.07 ± 0.32 %ID/g
same,tissue uptake,"[3]; spleen, without blocking, read-out: ID/g, spleen",2.73 ± 0.85 %ID/g
same,tissue uptake,"[3]; stomach, NDP blocking (20 μg coinjected), read-out: ID/g, stomach",1.52 ± 0.31 %ID/g
same,tissue uptake,"[3]; stomach, c(RGDyK) blocking (200 μg coinjected), read-out: ID/g, stomach",0.54 ± 0.04 %ID/g
same,tissue uptake,"[3]; stomach, double blocking (NDP + c(RGDyK)), read-out: ID/g, stomach",0.54 ± 0.12 %ID/g
same,tissue uptake,"[3]; stomach, without blocking, read-out: ID/g, stomach",1.56 ± 0.29 %ID/g
same,tissue uptake at 1.5 h,"[3]; tail, NDP blocking (20 μg coinjected), read-out: ID/g, tail",37.6 ± 8.67 %ID/g
same,tissue uptake at 1.5 h,"[3]; tail, c(RGDyK) blocking (200 μg coinjected), read-out: ID/g, tail",69 ± 3.84 %ID/g
same,tissue uptake,"[3]; tail, double blocking (NDP + c(RGDyK)), read-out: ID/g, tail",53.3 ± 12.8 %ID/g
same,tissue uptake at 1.5 h,"[3]; tail, without blocking, read-out: ID/g, tail",38 ± 14.4 %ID/g
